From patent publication US20100322979A1, “Peptidomimetic Resorbable Peptide-Polymer Hybrid Polyester Nanoparticles” (UNIVERSITY OF SOUTH CAROLINA, priority 2009, published 2010)
Like-named read-outs stand apart in the source and are kept apart here. Ends that are not written are not given here.

What was measured:
mouse breast cancer MTCL = assay: In vivo effect of the NPs on host toxicity and anti-tumor efficacy; conditions: tail vein injection; Dox 6 mg/kg of body weight where present
Method: In accordance with the present disclosure, a mouse breast cancer MTCL grown under the back skin of syngeneic C3H mice was utilized. When the tumor size reached 300 mm^3, mice were randomly divided into 6 groups (10 mice/group) and received one of these treatments by tail vein injection: PBS, PLAA-EO NPs, PLAA-CV6K2 NPs, Dox, Dox+PLAA-EO NPs, and Dox+PLAA-CV6K2 NPs. The injected Dox amount was 6 mg/kg of body weight. After the treatment, body weight and tumor size were measured daily and the results are shown in FIGS. 10a and 10b, respectively. […] Near-infrared (NIR) imaging was used to determine in vivo distribution of the NPs loaded with near-infrared dye IRDye 800RS Carboxylate (absorption at 786 nm). The infrared intensity in the intestinal region was at least 100 times higher than the other regions (confirmed by sacrificing the animal and directly imaging the intestinal tissue as shown in the inset of FIG. 10c).

HCT116 tumor cell line = assay: Tumor cell toxicity, MTT assay; assay type: cell-based; conditions: Homo sapiens, HCT-116, 72 h; 40 μg/ml Paclitaxel, after 3 days; read-out: cell viability (percentage of drug-free samples)
Method: Tumor cell toxicity was determined by incubating Paclitaxel drug, encapsulated in NPs, with HCT116 tumor cell line, seeded at a density of 5×10^4 cells/cm^2 and cultured in basal media (40 μg/ml Paclitaxel) for 24, 48, and 72 h. At each time point, suspension was removed, cells were washed with PBS, and viability was assessed by the MTT assay. FIG. 3(d) compares cell viability of HCT116 cells (expressed as the percentage of the values obtained from cells in the presence of drug compared to those in drug-free samples) incubated with 40 μg/ml Paclitaxel with that incubated with the same concentration encapsulated in PLGF NPs. […] Cell viability of Paclitaxel in solution after 3 days was 40% while that encapsulated in NPs was 28%. […] Toxicity of CV6K2-PLGF NPs to normal cells was assessed with bone marrow stromal (BMS) cells isolated from the bone marrow of Wistar rats. BMS cells were seeded in 24 well plates in primary media at a density of 4×10^4 cells/cm^2, incubated for 24 h for cell attachment. After cell attachment, the media was replaced with media containing […] of CV6K2-PLGF NPs and incubated for 1, 2, and 3 days. At each time point, the cells were washed with PBS to remove the free NPs, and the fraction of viable cells was measured by the MTT assay.

[1] = NP morphology and size distribution by electron microscopy and dynamic light scattering; assay type: physicochemical; conditions: Example 2
Text: Fumarate functionalized poly(lactide-co-glycolide) (PLGF) NPs are conjugated with CV6K2 peptide to stabilize the NPs through specific interactions between the amino acid side chains. Low molecular weight poly(lactide-co-glycolide) (LMW PLGA) are synthesized by ring opening polymerization of a mixture of lactide and glycolide monomers. PLGF was synthesized by polymerization of ULMW PLGA with fumaryl chloride (FuCl). The fumarate groups in PLGF macromer provide functionality for covalent attachment of ligands which bind with high specificity to receptors on tumor-associated cells, like the αvβ3 integrin receptor. ULMW PLGA with number-average molecular weight in the range 1-3 kDa was used in the synthesis of PLGF for highest density of unsaturated fumarate groups for ligand conjugation. […] The morphology and size distribution of the NPs were determined by SEM and dynamic light scattering, respectively. […]
Nanoparticle (NP) self-assembly and characterization: PLAF-CV6K2 or PLGF-CV6K2 macromers were dissolved in a solution of 1 mL DMF and 8 mL dimethysulfoxide (DMSO). […] The size distribution of NPs was measured by dynamic light scattering (DLS). […] At each time point, NPs size was measured with DLS. […] The fraction of mass remaining was determined by dividing the dried mass in the supernatant at time t by the initial mass at time zero.

[2] = Release kinetics of Paclitaxel from NPs in-vitro in PBS (pH 7.4); assay type: physicochemical
Method: Degradation and release characteristics of NPs. PLGF macromer with 100:0 lactide to glycolide ratio (PLAF) was synthesized by condensation polymerization. CV6K2 peptide was conjugated to PLAF to produce CV6K2-PLAF macromer. PLGF-PLEOF and CV6K2-PLGF NPs were produced by dialysis of the macromers in dimethylsulfoxide/dimethylformamide (DMSO/DMF) against water. Degradation of PLGF-PLEOF NPs was non-linear with incubation. […] To measure release kinetics, Paclitaxel was used as the surrogate molecule. Paclitaxel loaded NPs were prepared by dialysis. After dialysis, the NPs were dissolved in DMSO and 3 ml of acetonitrile-water mixture (50:50 v/v) was added. After 2 h, the suspension was centrifuged and the amount of Paclitaxel in the supernatant was measured by isocratic reverse-phase HPLC with a photodiode array detector at the wavelength of 227 nm. The encapsulation efficiency ranged from 70 to 56% and decreased with increasing Paclitaxel concentration. […]
Release profiles of Paclitaxel from CV6K2 NPs: NPs (6% Paclitaxel by weight of the PLAF or PLGF macromer) were prepared by dialysis. After dialysis for 24 h to self-assemble the macromers and to remove the unencapsulated Paclitaxel, encapsulation efficiency was determined by HPLC. The release kinetics of Paclitaxel from the NPs was measured in-vitro in PBS (pH 7.4) for up to 28 days. […]

MCF-7 cells = assay: Binding of cyclic peptide grafted NPs to tumor cells, confocal microscopy; assay type: cell-based
Text: (§1) Targeting to tumor endothelial cells by grafting cyclic c(-RGDfC-) peptide to NPs: The linear D-Phe-Cys-Arg-Gly-Asp peptide was synthesized manually using Fmoc chemistry. After peptide chain elongation, the linear peptide was cyclized directly on the peptidyl resin by coupling the carboxylate group on aspartic acid to the amine group on phenylalanine in the peptide sequence. The cyclized peptide was side-chain deprotected, cleaved from the resin, precipitated in cold ether, and purified by preparative high-performance liquid chromatography (HPLC). The cyclic peptide was characterized by Electro Spray Ionization (ESI) spectrometry For grafting, […] peptide was incubated with NPs at ambient conditions for 10 h. After grafting, the NPs were purified by dialysis against water and incubated with MCF-7 and U87MG tumor cells. After incubation, unattached NPs were removed by washing, cells were fixed, and stained with phalloidin (for cytoskeleton) and DAPI (for cell nuclei) and imaged with confocal microscopy. FIGS. 5(a) and 5(b) show the image of MCF-7 and U87MG cells, respectively. The bright dots in FIG. 5(b) and their absence in FIG. 5(a) are the FITC-stained c(-GRGfC-) peptide grafted NPs that are attached/internalized by U87MG cells that have high expression of αvβ3 integrin receptor.

[3] = system: U87MG cells (high expression of αvβ3 integrin receptor); assay: as above; assay type: cell-based
Text: as §1

In the case of `COc1cccc2c1C(=O)c1c(O)c3c(c(O)c1C2=O)C[C@@](O)(C(=O)CO)C[C@@H]3O[C@H]1C[C@H](N)[C@H](O)[C@H](C)O1` [Dox], the “host toxicity (body weight change)” value (mouse breast cancer MTCL) is reported as “highest body weight loss”.

For `CC(=O)O[C@H]1C(=O)[C@@]2(C)[C@H]([C@H](OC(=O)c3ccccc3)[C@]3(O)C[C@H](OC(=O)[C@H](O)[C@@H](NC(=O)c4ccccc4)c4ccccc4)C(C)=C1C3(C)C)[C@]1(OC(C)=O)CO[C@@H]1C[C@@H]2O` [Paclitaxel], the viability at 40 µg/mL (HCT116 tumor cell line) was 40%.

For “CVVVVVVKK [CV6K2 NPs, NPs self-assembled from the CV6K2 peptide only]”, the “average diameter (NP size), DLS” value [1] was 70 nm, the “duration of Paclitaxel release” value [2] was 3 days and the “duration of Paclitaxel release” value ([2]; listed as peptide) was 5 days.

With “c(-GRGfC-) grafted NPs: FITC-stained NPs grafted with cyclic D-Phe-Cys-Arg-Gly-Asp peptide” the “attachment/internalization of FITC-stained grafted NPs” value (MCF-7 cells) was “absence” and the “attachment/internalization of FITC-stained grafted NPs” value [3] was “attached/internalized”.
